Laboratory results as given in ChEMBL document CHEMBL1201862, “PubChem BioAssay data set” (2004).
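Compound exposure: 48 hours, 5 concentrations, 96-well plates. Here, GI50 denotes the concentration required for 50% inhibition of growth.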 Activity calls are given as the source filed them. Rule as the data show it: active = GI50 up to about 1.1 µM and inactive = higher.

Columns and labels:
Assay in all cases: NCI tumour cell line growth inhibition, 48 h
[1] = tested on: A549
[2] = tested on: Malme-3M
[3] = tested on: HCC 2998
[4] = tested on: RPMI-8226
[5] = tested on: TK-10
[6] = tested on: MDA-MB-231
[7] = tested on: IGROV-1
[8] = tested on: UO-31
[9] = tested on: NCI-H23
[10] = tested on: CAKI-1
[11] = tested on: SNB-19
[12] = tested on: CCRF-CEM
[13] = tested on: RXF 393
[14] = tested on: M14
[15] = tested on: SR
[16] = tested on: HCT-116
[17] = tested on: MOLT-4
[18] = tested on: SNB-75
[19] = tested on: 786-0
[20] = tested on: SF-539
[21] = tested on: MDA-N
[22] = tested on: T47D
[23] = tested on: NCI-H226
[24] = tested on: OVCAR-3
[25] = tested on: MDA-MB-435
[26] = tested on: NCI/ADR-RES
[27] = tested on: Hs-578T
[28] = tested on: HOP-62
[29] = tested on: SF-295
[30] = tested on: MCF7
[31] = tested on: U-251
[32] = tested on: HOP-92
[33] = tested on: SK-MEL-5
[34] = tested on: OVCAR-5
[35] = tested on: HT-29
[36] = tested on: NCI-H522
[37] = tested on: SK-MEL-28
[38] = tested on: DU-145
[39] = tested on: COLO 205
[40] = tested on: SF-268
[41] = tested on: SW-620
[42] = tested on: UACC-257
[43] = tested on: ACHN
[44] = tested on: NCI-H460
[45] = tested on: HL-60
[46] = tested on: OVCAR-8
[47] = tested on: SN12C
[48] = tested on: SK-MEL-2
[49] = tested on: LOX IMVI
[50] = tested on: A498
[51] = tested on: KM12
[52] = tested on: UACC-62
[53] = tested on: K562
[54] = tested on: EKVX
[55] = tested on: HCT-15
[56] = tested on: SK-OV-3
[57] = tested on: OVCAR-4
[58] = tested on: PC-3
[59] = tested on: BT-549

CC(=O)NC1=C(OS(=O)(=O)c2ccc(C)cc2)CN(C)C1=O
GI50 [1]: 3.5 µM (inactive) | GI50 [2]: 2.26 µM (inactive) | GI50 [3]: 2.43 µM (inactive) | GI50 [4]: 1.59 µM (inactive) | GI50 [5]: 1.94 µM (inactive) | GI50 [6]: 7.82 µM (inactive) | GI50 [7]: 3.39 µM (inactive) | GI50 [8]: 3.44 µM (inactive) | GI50 [9]: 3.72 µM (inactive) | GI50 [10]: 3.86 µM (inactive) | GI50 [11]: 3.43 µM (inactive) | GI50 [12]: 1.77 µM (inactive) | GI50 [13]: 3.3 µM (inactive) | GI50 [14]: 5.04 µM (inactive) | GI50 [15]: 4.6 µM (inactive) | GI50 [16]: 3.15 µM (inactive) | GI50 [17]: 3.25 µM (inactive) | GI50 [18]: 4.31 µM (inactive) | GI50 [19]: 3.79 µM (inactive) | GI50 [20]: 2.06 µM (inactive) | GI50 [21]: 4.56 µM (inactive) | GI50 [22]: 2.12 µM (inactive) | GI50 [23]: 8.73 µM (inactive) | GI50 [24]: 2.74 µM (inactive) | GI50 [25]: 4.26 µM (inactive) | GI50 [26]: 3.91 µM (inactive) | GI50 [27]: 4.03 µM (inactive) | GI50 [28]: 2.88 µM (inactive) | GI50 [29]: 4.1 µM (inactive) | GI50 [30]: 2.89 µM (inactive) | GI50 [31]: 2.7 µM (inactive) | GI50 [32]: 2.84 µM (inactive) | GI50 [33]: 4.11 µM (inactive) | GI50 [34]: 16.7 µM (inactive) | GI50 [35]: 4.92 µM (inactive) | GI50 [36]: 2.82 µM (inactive) | GI50 [37]: 10.3 µM (inactive) | GI50 [38]: 4.2 µM (inactive) | GI50 [39]: 5.75 µM (inactive) | GI50 [40]: 5.04 µM (inactive) | GI50 [41]: 4.68 µM (inactive) | GI50 [42]: 2.49 µM (inactive) | GI50 [43]: 3.32 µM (inactive) | GI50 [44]: 2.37 µM (inactive) | GI50 [45]: 2.83 µM (inactive) | GI50 [46]: 4.22 µM (inactive) | GI50 [47]: 4.37 µM (inactive) | GI50 [48]: 2.55 µM (inactive) | GI50 [49]: 4.6 µM (inactive) | GI50 [50]: 4.25 µM (inactive) | GI50 [51]: 3.92 µM (inactive) | GI50 [52]: 6.79 µM (inactive) | GI50 [53]: 3.61 µM (inactive) | GI50 [54]: 4.84 µM (inactive) | GI50 [55]: 2.96 µM | GI50 [56]: 7.57 µM (inactive) | GI50 [57]: 6.27 µM (inactive) | GI50 [58]: 2.84 µM (inactive) | GI50 [59]: 3.09 µM (inactive)

O=[N+]([O-])/C=C/c1c(Cl)cccc1Cl
GI50 [1]: 8.63 µM (inactive) | GI50 [2]: 3.05 µM (inactive) | GI50 [3]: 3.45 µM (inactive) | GI50 [4]: 0.838 µM (active) | GI50 [5]: 2.67 µM (inactive) | GI50 [6]: 1.91 µM (inactive) | GI50 [7]: 3.65 µM (inactive) | GI50 [8]: 3.76 µM (inactive) | GI50 [9]: 4.46 µM (inactive) | GI50 [10]: 3.66 µM (inactive) | GI50 [11]: 5.28 µM (inactive) | GI50 [12]: 1.23 µM (inactive) | GI50 [13]: 10.4 µM (inactive) | GI50 [14]: 1.48 µM (inactive) | GI50 [15]: 0.933 µM (active) | GI50 [16]: 2.7 µM (inactive) | GI50 [17]: 1.07 µM (active) | GI50 [18]: 18 µM (inactive) | GI50 [19]: 0.809 µM (active) | GI50 [20]: 2.37 µM (inactive) | GI50 [21]: 2.89 µM (inactive) | GI50 [22]: 2.06 µM (inactive) | GI50 [23]: 10 µM (inactive) | GI50 [24]: 1.3 µM (inactive) | GI50 [25]: 1.77 µM (inactive) | GI50 [26]: 1.96 µM (inactive) | GI50 [27]: 9.44 µM (inactive) | GI50 [28]: 6.38 µM (inactive) | GI50 [29]: 7.87 µM (inactive) | GI50 [30]: 1.64 µM (inactive) | GI50 [31]: 2.61 µM (inactive) | GI50 [32]: 4.9 µM (inactive) | GI50 [33]: 3.13 µM (inactive) | GI50 [34]: 8.95 µM (inactive) | GI50 [35]: 2.45 µM (inactive) | GI50 [36]: 1.61 µM (inactive) | GI50 [37]: 4.97 µM (inactive) | GI50 [38]: 9.06 µM (inactive) | GI50 [39]: 0.849 µM (active) | GI50 [40]: 4.32 µM (inactive) | GI50 [41]: 0.966 µM (active) | GI50 [42]: 3.09 µM (inactive) | GI50 [43]: 2.48 µM (inactive) | GI50 [44]: 2.61 µM (inactive) | GI50 [45]: 1.24 µM (inactive) | GI50 [46]: 1.4 µM (inactive) | GI50 [47]: 1.53 µM (inactive) | GI50 [48]: 5.94 µM (inactive) | GI50 [49]: 1.37 µM (inactive) | GI50 [50]: 16.4 µM (inactive) | GI50 [51]: 1.58 µM (inactive) | GI50 [52]: 2.77 µM (inactive) | GI50 [53]: 1.68 µM (inactive) | GI50 [54]: 5.65 µM (inactive) | GI50 [55]: 1.48 µM | GI50 [56]: 20.8 µM (inactive) | GI50 [57]: 3.56 µM (inactive) | GI50 [58]: 1.77 µM (inactive) | GI50 [59]: 2.01 µM (inactive)
